Data: patent US5580956A, “Phospholipase C-inhibiting peptides” (priority 1992, dated 1996)
Converted amounts (≈) assume the structure as drawn. Numbered stars: 1 amine (or outer) side, 2 acyl side, 3 side chain; on linkers, the order of the positions; unused ones are H or OH. Peptide text beside a SMILES is read from it. * marks the point of attachment. Benzoyl(2,5-(OH)2) = O=C(c1cc(O)ccc1O)*; Cyclopentanecarbonyl = O=C(C1CCCC1)*; Propanoyl(3-cPent) = O=C(CCC1CCCC1)*; Cyclopentylacetyl = O=C(CC1CCCC1)*; Suc = O=C(CCC(=O)[*:2])[*:1]; Nonanoyl = CCCCCCCCC(=O)*; Isobutyryl = CC(C)C(=O)*; Butyryl = CCCC(=O)*

Columns and labels:
PLC-γ1 = biological target: T1, PLC-γ1 (Bos taurus, UniProt P08487); assay: PLC-inhibiting activity (release of [3H]inositol phosphate from [3H]PIP2); assay type: biochemical, bovine; conditions: PI-PLC-γ1, 37° C., 10 minutes; for inhibition at 120 µM (stock): Concentration 120 μM (aqueous solution of test peptide)
T1 construct: A sample (PLC-γ1) was prepared from bovine thymus according to the method of Y. Homma et al; from tissue; host or cells: bovine thymus
T1 sequence (P08487 1-1291): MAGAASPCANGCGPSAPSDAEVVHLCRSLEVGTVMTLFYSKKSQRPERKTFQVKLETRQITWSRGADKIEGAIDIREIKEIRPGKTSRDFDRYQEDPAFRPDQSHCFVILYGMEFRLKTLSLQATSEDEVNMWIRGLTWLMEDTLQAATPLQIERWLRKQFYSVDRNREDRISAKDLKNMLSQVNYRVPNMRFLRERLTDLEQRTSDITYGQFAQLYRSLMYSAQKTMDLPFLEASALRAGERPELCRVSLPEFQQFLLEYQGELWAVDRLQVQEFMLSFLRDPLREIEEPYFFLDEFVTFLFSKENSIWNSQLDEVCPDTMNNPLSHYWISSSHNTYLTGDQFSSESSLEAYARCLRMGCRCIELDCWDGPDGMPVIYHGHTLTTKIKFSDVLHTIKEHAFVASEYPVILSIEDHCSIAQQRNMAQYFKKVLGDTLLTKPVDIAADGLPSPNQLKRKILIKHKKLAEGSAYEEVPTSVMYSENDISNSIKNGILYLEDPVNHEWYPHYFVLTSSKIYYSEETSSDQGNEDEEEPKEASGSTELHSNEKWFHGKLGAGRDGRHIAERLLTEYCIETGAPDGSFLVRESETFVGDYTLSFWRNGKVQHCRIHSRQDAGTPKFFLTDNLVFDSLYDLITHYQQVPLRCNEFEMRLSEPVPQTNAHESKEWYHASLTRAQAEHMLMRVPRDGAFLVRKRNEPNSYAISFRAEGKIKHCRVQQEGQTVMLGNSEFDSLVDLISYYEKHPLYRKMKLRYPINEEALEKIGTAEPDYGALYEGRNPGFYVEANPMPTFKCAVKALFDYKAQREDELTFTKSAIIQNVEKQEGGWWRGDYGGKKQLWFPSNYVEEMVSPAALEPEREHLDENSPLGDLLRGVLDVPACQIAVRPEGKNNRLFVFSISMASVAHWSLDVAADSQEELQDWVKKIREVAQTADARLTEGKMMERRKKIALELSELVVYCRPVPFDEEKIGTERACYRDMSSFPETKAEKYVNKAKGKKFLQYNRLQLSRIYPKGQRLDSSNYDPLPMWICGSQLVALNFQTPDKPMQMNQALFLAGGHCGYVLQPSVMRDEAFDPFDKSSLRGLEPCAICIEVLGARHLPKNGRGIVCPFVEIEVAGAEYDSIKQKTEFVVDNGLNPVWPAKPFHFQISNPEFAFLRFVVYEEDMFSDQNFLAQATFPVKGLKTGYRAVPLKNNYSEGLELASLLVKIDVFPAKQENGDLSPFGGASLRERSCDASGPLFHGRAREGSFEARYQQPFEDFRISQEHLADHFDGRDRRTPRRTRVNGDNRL
Procedure: A sample (PLC-γ1) was prepared from bovine thymus according to the method of Y. Homma et al. described in Biochemical Journal [(Biochem. J.), 269, 13 (1990)]. A solution having the composition listed in Table 1 below was prepared in advance on the ice and the reaction was begun with heating to 37° C. After incubation for 10 minutes, 2 ml of a solution mixture of chloroform/methanol (2:[…]) was added thereto to stop the reaction. The resulting inositol phosphate was extracted with 0.5 ml of 1N hydrochloric acid. Two-phase distribution was carried out by centrifugation (2000×g, 3 minutes), and the amount of ^3 H contained in 0.7 ml of the supernatant was measured with scintillation counter. […] The obtained value of specific radioactivity was defined as "A", the value of specific radioactivity obtained when an equivalent amount of water was added instead of the aqueous solution of the test peptide was defined as "B", the value of specific radioactivity obtained when an equivalent amount of water was added instead of the sample and the aqueous solution of the test peptide was defined as "C", and the inhibition rate (X) was determined according to the following equation. X(%)=[…]

[1] = tested on: Pseudomonas aeruginosa Bin H No. 1; assay type: cell-based; conditions: Bin H No. 1, pH 7
Procedure: (§1) The antibacterial activity was determined by the agar dilution method using a culture medium (pH 7.0) containing 3 g/l bactotrypton (product of Difco Co.), 1 g/l meat extract, 1 g/l glucose and 16 g/l agar.

[2] = tested on: Proteus vulgaris ATCC6897; assay type: cell-based; conditions: ATCC6897, pH 7
Procedure: as §1

KMS-4 cells = assay: Cell proliferation-inhibiting activity (BrdU incorporation, Amersham Cell Proliferation Detection Kit); assay type: cell-based; conditions: 17 hours with peptide, BrdU-stained cells
Procedure: The following procedure was carried out with an Amersham Cell Proliferation Detection Kit. First, cells [KMS-4; M. Nanba et al., International Journal of Cancer, 32, 697 (1983)] were suspended in a DMEM culture medium (product of Nissui Seiyaku) containing 10% fetal calf serum to a concentration of 1-2×10^4 cells/ml, and 1 ml of the above-mentioned cell suspension was put into each well of a 24-well plate (product of Corning Co.). The cells were cultured for 2 days in a CO2 incubator (37° C., 5% CO2). Next, the culture medium was exchanged with a DMEM medium containing 10% fetal calf serum, and then the test peptide was added thereto and culturing was carried out for 17 hours. The culture medium was again exchanged with a serum-free DMEM medium, 0.5 ml of a solution of the reagents labelled 5-bromo-2'-deoxyuridine (BrdU) and 5-fluoro-2'-deoxyuridine (FdU) [10:1] diluted 1000-fold with the same medium was added to each well, and cultured for 2 hours. The culture medium was removed, and the cells were immobilized with an acetic acid/ethanol solution. The immobilized cells were stained according to the method for the Amersham Cell Proliferation Kit, and then further stained with a 1% Giemsa solution (product of Merck Co.). The number of cells incorporating BrdU and the total cell count within 1 field of vision of the microscope (approximately 200 cells) were determined, and the proportion (%) of stained cells per field of vision was calculated. Furthermore, the same procedure was repeated 10 times, and the average value thereof was defined as the cell proliferation activity (%). The cell proliferation-inhibiting activity was calculated in the following manner. The proliferation activity without addition of peptide was defined as "A", the proliferation activity with addition of the test peptide was defined as "B", and the cell proliferation inhibition rate (X) was determined according to the following equation. X (%)=[…]

[3] = Concentration 130 μM (aqueous solution of test peptide), read-out: Inhibition rate (%)

Compound | MIC [1] | MIC [2] | Cell proliferation inhibition rate (%) (KMS-4 cells; Concentration 31 μM) | inhibition at 120 µM (stock) (PLC-γ1; read-out: Inhibition rate (%)) | further results
CSCC[C@H](NC(=O)[C@H](CCCCN)NC(=O)[C@H](CCCNC(=N)N)NC(=O)[C@H](Cc1ccc(O)cc1)NC(=O)[C@H](CC(C)C)NC(=O)C(C)C)C(=O)N[C@@H](CCCNC(=N)N)C(=O)N[C@@H](CC(C)C)C(=O)N[C@@H](CCCNC(=N)N)C(=O)N[C@@H](Cc1ccc(O)cc1)C(=O)N1CCC[C@H]1C(=O)N[C@H](C(N)=O)C(C)C [(I-19), (CH3)2 CHCO-Leu-Tyr-Arg-Lys-Met-Arg-Leu-Arg-Tyr-Pro-Val-NH2] (Isobutyryl-LYRKMRLRYPV-NH2) | 83 µg/mL (≈ 53.1 µM) | 83 µg/mL (≈ 53.1 µM) |  |  | inhibition at 640 µM (stock) (PLC-γ1; Concentration 640 μM (aqueous solution of test peptide), read-out: Inhibition rate (%)): 67%; Cell proliferation inhibition rate (%) (KMS-4 cells; Concentration 32 μM): 59%
CSCC[C@H](NC(=O)[C@H](CCCCN)NC(=O)[C@H](CCCNC(=N)N)NC(=O)[C@H](Cc1ccc(O)cc1)NC(=O)[C@H](CC(C)C)NC(=O)CCC(=O)O)C(=O)N[C@@H](CCCNC(=N)N)C(=O)N[C@@H](CC(C)C)C(=O)N[C@@H](CCCNC(=N)N)C(=O)N[C@@H](Cc1ccc(O)cc1)C(=O)N1CCC[C@H]1C(=O)N[C@H](C(N)=O)C(C)C [(I-22), HOO (CH2)2 CO-Leu-Tyr-Arg-Lys-Met-Arg-Leu-Arg-Tyr-Pro-Val-NH2] (Suc-LYRKMRLRYPV-NH2) | 42 µg/mL (≈ 26.3 µM) | 83 µg/mL (≈ 52.1 µM) | 84% |  | inhibition at 130 µM (stock) (PLC-γ1; [3]): 36%
CSCC[C@H](NC(=O)[C@H](CCCCN)NC(=O)[C@H](CCCNC(=N)N)NC(=O)[C@H](Cc1ccc(O)cc1)NC(=O)[C@H](CC(C)C)NC(=O)c1cc(O)ccc1O)C(=O)N[C@@H](CCCNC(=N)N)C(=O)N[C@@H](CC(C)C)C(=O)N[C@@H](CCCNC(=N)N)C(=O)N[C@@H](Cc1ccc(O)cc1)C(=O)N1CCC[C@H]1C(=O)N[C@H](C(N)=O)C(C)C [(I-15), (HO)2 C6 H3 CO-Leu-Tyr-Arg-Lys-Met-Arg-Leu-Arg-Tyr-Pro-Val-NH2] ({Benzoyl(2,5-(OH)2)}-LYRKMRLRYPV-NH2) |  |  | 66% | 41% | 
CSCC[C@H](NC(=O)[C@H](CCCCN)NC(=O)[C@H](CCCNC(=N)N)NC(=O)[C@H](Cc1ccc(O)cc1)NC(=O)[C@H](CC(C)C)NC(=O)CCC1CCCC1)C(=O)N[C@@H](CCCNC(=N)N)C(=O)N[C@@H](CC(C)C)C(=O)N[C@@H](CCCNC(=N)N)C(=O)N[C@@H](Cc1ccc(O)cc1)C(=O)N1CCC[C@H]1C(=O)N[C@H](C(N)=O)C(C)C [(I-23), C5 H9 CH2 CH2 CO-Leu-Tyr-Arg-Lys-Met-Arg-Leu-Arg-Tyr-Pro-Val-NH2] ({Propanoyl(3-cPent)}-LYRKMRLRYPV-NH2) |  |  | 53% | 53% | 
CSCC[C@H](NC(=O)[C@H](CCCCN)NC(=O)[C@H](CCCNC(=N)N)NC(=O)[C@H](Cc1ccc(O)cc1)NC(=O)[C@H](CC(C)C)NC(=O)C1CCCC1)C(=O)N[C@@H](CCCNC(=N)N)C(=O)N[C@@H](CC(C)C)C(=O)N[C@@H](CCCNC(=N)N)C(=O)N[C@@H](Cc1ccc(O)cc1)C(=O)N1CCC[C@H]1C(=O)N[C@H](C(N)=O)C(C)C [(I-26), C5 H9 CO-Leu-Tyr-Arg-Lys-Met-Arg-Leu-Arg-Tyr-pro-Val-NH2] (Cyclopentanecarbonyl-LYRKMRLRYPV-NH2) | 42 µg/mL (≈ 26.4 µM) | 83 µg/mL (≈ 52.2 µM) | 71% |  | inhibition at 130 µM (stock) (PLC-γ1; [3]): 23%
CSCC[C@H](NC(=O)[C@H](CCCCN)NC(=O)[C@H](CCCNC(=N)N)NC(=O)[C@H](Cc1ccc(O)cc1)NC(=O)[C@H](CC(C)C)NC(=O)CC1CCCC1)C(=O)N[C@@H](CCCNC(=N)N)C(=O)N[C@@H](CC(C)C)C(=O)N[C@@H](CCCNC(=N)N)C(=O)N[C@@H](Cc1ccc(O)cc1)C(=O)N1CCC[C@H]1C(=O)N[C@H](C(N)=O)C(C)C [(I-17), C5 H9 CH2 CO-Leu-Tyr-Arg-Lys-Met-Arg-Leu-Arg-Tyr-Pro-Val-NH2] (Cyclopentylacetyl-LYRKMRLRYPV-NH2) |  |  | 72% | 53% | 
CCCCCCCCC(=O)N[C@@H](CC(C)C)C(=O)N[C@@H](Cc1ccc(O)cc1)C(=O)N[C@@H](CCCNC(=N)N)C(=O)N[C@@H](CCCCN)C(=O)N[C@@H](CCSC)C(=O)N[C@@H](CCCNC(=N)N)C(=O)N[C@@H](CC(C)C)C(=O)N[C@@H](CCCNC(=N)N)C(=O)N[C@@H](Cc1ccc(O)cc1)C(=O)N1CCC[C@H]1C(=O)N[C@H](C(N)=O)C(C)C [(I-28), CH3 (CH2)7 CO-Leu-Tyr-Arg-Lys-Met-Arg-Leu-Arg-Tyr-Pro-Val-NH2] (Nonanoyl-LYRKMRLRYPV-NH2) |  |  | 22% | 78% | 
n-C3 H7 CO-Leu-Tyr-Arg-Lys-Met-Arg-Leu-Arg-Tyr-Pro-Val-NH2 (Butyryl-LYRKMRLRYPV-NH2; SMILES CCCC(=O)N[C@@H](CC(C)C)C(=O)N[C@@H](Cc1ccc(O)cc1)C(=O)N[C@@H](CCCNC(=N)N)C(=O)N[C@@H](CCCCN)C(=O)N[C@@H](CCSC)C(=O)N[C@@H](CCCNC(=N)N)C(=O)N[C@@H](CC(C)C)C(=O)N[C@@H](CCCNC(=N)N)C(=O)N[C@@H](Cc1ccc(O)cc1)C(=O)N1CCC[C@H]1C(=O)N[C@H](C(N)=O)C(C)C) [Compound (I-11)] |  |  |  |  | Inhibition rate (%) (PLC-γ1; Concentration 130 μM (aqueous solution of test peptide)): 31%; Cell proliferation inhibition rate (%) (KMS-4 cells; Concentration 1 μM): 86%; Cell proliferation inhibition rate (%) (KMS-4 cells; Concentration 32 μM): 84%
